# Patent US11766403B2, “Peptide-targeted liposomal delivery for treatment, diagnosis, and imaging of diseases and disorders” (University of Maryland, Baltimore, priority 2019, dated 2023)
# Where no end group is shown, it is not given here.
# Key:
# [1] = system: human umbilical vein endothelial cells (HUVEC); assay: Binding of FITC-labeled ART-2 peptide to endothelial cells in vitro; format: cell-based; details: 2 h
# Protocol: (§1) FIG. 4, comprising FIG. 4A through FIG. 4D, depicts in vitro and in vivo binding of ART-2 peptides. FIG. 4A depicts the binding of fluorescein isothiocyanate (FITC)-labeled ART-2 peptide to human umbilical vein endothelial cells (HUVEC) in vitro (HUVEC were treated with ART-2-FITC peptides for 2 h at the indicated concentrations). A representative histogram is shown. FIG. 4B depicts HUVEC that were stained with ART-2-FITC peptide at 0.5 μM concentration, PE-labeled CD31 (a marker for endothelial cells), and DAPI (for nucleus staining) and examined under a fluorescence microscope. FIG. 4C depicts in vivo distribution of Cyanine 7 (Cy7)-labeled ART-2 peptide: real-time fluorescence imaging of arthritic rats at 4 h time point after i.v. injection of the peptide following the procedure described in the legend to FIG. 7. FIG. 4D depicts images of ex-vivo fluorescence of different organs harvested from arthritic rats at 4 h after i.v. injection of ART-2-Cy7-peptide.
# rat arthritic joints = assay: In vivo distribution of Cy7-labeled ART-2 peptide (homing to arthritic joints); details: i.v., arthritic rats, 4 h
# Protocol: as §1
sequence,measurement,setting,value
"CKPFDRALC (not fully specified; cysteine pairing not given here) [ART-2, novel tissue-targeting peptide]",binding of peptide to endothelial cells,[1],avid binding to endothelial cells
same,homing to arthritic joints,rat arthritic joints,preferential homing to rat arthritic joints
